Measured values published in PubChem BioAssay (NCI).
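Results reflect a 48-hour exposure of cells in 96-well plates to compound at five concentrations. Here, GI50 denotes the concentration required for 50% inhibition of growth. The concentration for full growth arrest is given as TGI.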

What was measured:
Assay in all cases: growth of human tumour cells (NCI), 48 h
[1] = system: SN12C renal
[2] = system: MDA-MB-231 breast
[3] = system: SF-268 CNS
[4] = system: MALME-3M melanoma
[5] = system: A498 renal
[6] = system: CCRF-CEM leukemia
[7] = system: CAKI-1 renal
[8] = system: OVCAR-4 ovarian
[9] = system: HL-60(TB) leukemia
[10] = system: SR leukemia

Structure (SMILES) | TGI [1] [µM] | TGI [2] [µM] | TGI [3] [µM] | TGI [4] [µM] | TGI [5] [µM] | TGI [6] [µM] | TGI [7] [µM] | GI50 [1] [µM] | GI50 [2] [µM] | GI50 [4] [µM] | GI50 [8] [µM] | TGI [8] [µM] | GI50 [5] [µM] | GI50 [6] [µM] | GI50 [9] [µM] | TGI [9] [µM] | TGI [10] [µM] | GI50 [10] [µM] | GI50 [3] [µM] | GI50 [7] [µM]
CCCCCCCCCCCCNC(C)=O | 37 | 28.6 | 29.5 | 34.5 | 68 | 32.7 | 39.3 | – | – | – | – | – | – | – | – | – | – | – | – | –
Nc1ccc2c(c1)C(=O)C(=O)c1c-2nc2ccccn12 | 2.48 | 4.96 | – | 0.572 | 3.37 | 5.27 | – | 1.08 | 1.75 | 0.271 | 1.23 | 2.49 | 1.57 | 1.77 | 1.96 | 5.46 | – | – | – | –
OC1[C@H]([C@H]2CCCC[C@@H]2O)CCC[C@@H]1[C@@H]1CCCC[C@H]1O (stereo partly specified) | > 100 | – | > 100 | > 100 | > 100 | > 100 | > 100 | – | – | – | – | > 100 | – | – | – | > 100 | > 100 | – | – | –
Cc1ccc(S(=O)(=O)OC2CCN(C)CC2)cc1 | > 100 | > 100 | > 100 | 37.9 | – | – | – | – | – | – | – | > 100 | – | – | – | 37.3 | 49.9 | – | – | –
CCN(CC)CCOCC[C@H]1CC[C@H]2[C@@H]3[C@H](C)Cc4cc(OS(N)(=O)=O)ccc4[C@H]3CC[C@]12C | 2.86 | 3.03 | 2.66 | – | 3.96 | 4.34 | 2.97 | 1.19 | 1.5 | – | 0.806 | 2.29 | 1.54 | 1.14 | 1.64 | 3.87 | 1.42 | 0.329 | 1.31 | 1.36
Cc1c(N2CCCC2)cc2c(c1NC(=O)c1ccccc1Cl)C(C)(C)CC2(C)C | 33.2 | 29.3 | 30.6 | 36.1 | 29.1 | – | 26.1 | – | – | – | – | 33.3 | – | – | – | – | 38.1 | – | – | –
OC(c1cccc(-n2ccc(C(F)(F)F)n2)c1)c1cnccc1NC1CCCCCC1 (stereo unspecified) | 3.2 | 3.16 | 3.25 | 3.23 | – | 6.04 | 2.96 | 1.69 | 1.69 | 1.71 | 1.64 | 3.07 | – | 2.35 | 2.06 | 4.26 | 6.49 | 1.79 | 1.69 | 1.57
CC1CC[C@]2(C(=O)O)CCC3(COC(=O)/C=C\c4ccc(O)cc4)C(=CCC4[C@@]5(C)CC[C@H](O)C(C)(C)C5CC[C@]43C)[C@@H]2[C@H]1C (stereo partly specified) | 54.2 | – | 30.8 | 87.9 | 60.4 | 81.9 | 48.3 | – | – | – | – | > 100 | – | – | – | 72.8 | 76.1 | – | – | –
NC1=NC(=O)/C(=C/c2ccccc2[N+](=O)[O-])C(N)=N1 | > 100 | – | – | > 100 | – | > 100 | > 100 | – | – | – | – | > 100 | – | – | – | > 100 | > 100 | – | – | –
CN1N=CSC12C(=O)N(c1ccc(Cl)cc1)C(=O)N2c1ccc(Cl)cc1 (stereo unspecified) | > 100 | – | > 100 | > 100 | 9.67 | > 100 | > 100 | – | – | – | – | > 100 | – | – | – | 5.09 | > 100 | – | – | –
Cc1cn(Cc2ccccc2CCO)c(=S)[nH]c1=O | > 100 | – | > 100 | > 100 | > 100 | > 100 | > 100 | – | – | – | – | > 100 | – | – | – | > 100 | – | – | – | –
COc1cc(/C=C/c2ccncc2)cc(OC)c1OC | > 100 | – | > 100 | > 100 | > 100 | > 100 | > 100 | – | – | – | – | > 100 | – | – | – | 97.8 | – | – | – | –
CC(C)(C)NNC(=O)/C(=C/c1ccc([N+](=O)[O-])cc1)NC(=O)c1ccccc1 | > 100 | – | > 100 | > 100 | > 100 | 99.1 | > 100 | – | – | – | – | > 100 | – | – | – | > 100 | 46.4 | – | – | –
Cc1cc(N(CCC#N)CCC#N)ccc1/C=C1N=C(/C=C\c2ccccc2)OC\1=O | > 100 | – | > 100 | > 100 | > 100 | > 100 | > 100 | – | – | – | – | > 100 | – | – | – | > 100 | > 100 | – | – | –
NC(=O)NNCc1ccccc1 | > 100 | > 100 | > 100 | – | > 100 | > 100 | > 100 | – | – | – | – | > 100 | – | – | – | > 100 | – | – | – | –
CC(C)(C)OC1=C(OC(C)(C)C)C(O)(c2ccccc2)C1=O (stereo unspecified) | > 100 | – | > 100 | > 100 | > 100 | > 100 | – | – | – | – | – | > 100 | – | – | – | > 100 | – | – | – | –
COc1ccc(-c2cc(-c3cc(Cl)ccc3Cl)nc3n[nH]c(N)c23)cc1 | > 100 | > 100 | 24.5 | > 100 | 57.5 | 90.7 | 24.4 | 32.7 | 34 | 46.8 | 15.6 | > 100 | 21 | 31 | – | – | 52.5 | 10.1 | 4.32 | 4.05
C[N+](C)(C)CC1CCCC/C1=N\OC(=O)c1ccccc1 (stereo unspecified) | > 100 | – | > 100 | > 100 | – | > 100 | > 100 | – | – | – | – | > 100 | – | – | – | – | > 100 | – | – | –
CN1C(=O)CC(c2cccc(C3CC(=O)N(C)C3=O)n2)C1=O (stereo unspecified) | > 100 | – | > 100 | > 100 | > 100 | > 100 | > 100 | – | – | – | – | > 100 | – | – | – | > 100 | > 100 | – | – | –
O=C(Nc1c(O)[nH]c(=S)[nH]c1=O)c1ccccc1F | > 100 | – | > 100 | > 100 | > 100 | > 100 | > 100 | – | – | – | – | > 100 | – | – | – | > 100 | > 100 | – | – | –
COc1ccc(C2CC(=O)c3c(O)cc(O)cc3O2)cc1O (stereo unspecified) | > 100 | – | > 100 | > 100 | > 100 | > 100 | > 100 | – | – | – | – | > 100 | – | – | – | > 100 | – | – | – | –
